The record followed here is patent publication US20260042764A1, “COMPOSITIONS AND METHODS FOR INHIBITION OF KRAS” (TheRas, Inc., priority 2022, published 2026).

In general, IC50 refers to the concentration needed to halve the response being measured. Low values mean greater potency, high ones weaker potency.

Test [1] addresses T1, Avi-KRAS WT (1-169) GppNHp/RAF1 RBD-3xFLAG (52-151) (Homo sapiens, UniProt P01116).
T1 construct: Avi-KRAS WT (1-169)
The test can be described thus: Raf1-KRAS WT-GppNHP disruption HTRF assay (Biological Example 1). In kind it is binding. As to conditions: KRAS WT, GppNHp-loaded; Table 11. Summed up: (§1)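 Percent activity versus DMSO (100%) was derived from HTRF signal after KRAS–RAF1 RBD protein mix was incubated 1 h at room temperature with shaking and detection reagents were added for a further 1 h.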
For orientation: Time-resolved FRET reads energy transfer from a long-lived donor to a nearby acceptor.

In test [2] the test system is GP2d cells (KRAS G12D). The test can be described thus: Cell-based pERK HTRF assay in GP2d cell (Biological Example 2). Conditions: GP2d (KRAS G12D) cells, pERK HTRF. Summed up: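 Treatment with test compounds lasted one hour in DMEM containing 10% FBS, with DMSO held at 0.25%. Dilution series: 9 points, half-log spacing, highest 1 μM or 100 nM. Lysates were incubated 4–24 h at room temperature with antibody mix, then HTRF was read at 320 nm excitation.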

Test [3] concerns the target T2, Avi-KRAS G12D (1-169) GppNHp/RAF1 RBD-3xFLAG (52-151) (Homo sapiens, UniProt P01116, G12D).
T2 construct: Avi-KRAS G12D (1-169)
The test can be described thus: Raf1-KRAS G12D-GppNHP disruption HTRF assay (Biological Example 1). In kind it is binding. As to conditions: KRAS G12D, GppNHp-loaded; Table 11. Summed up:
as §1

Test [4] addresses T3, Avi-KRAS G12V (1-169) GppNHp/RAF1 RBD-3xFLAG (52-151) (Homo sapiens, UniProt P01116, G12V).
T3 construct: Avi-KRAS G12V (1-169)
The test can be described thus: Raf1-KRAS G12V-GppNHP disruption HTRF assay (Biological Example 1). The class given is binding. As to conditions: KRAS G12V, GppNHp-loaded; Table 11. Summed up: as §1

The target in test [5] is T4, Avi-KRAS G12R (1-169) GppNHp/RAF1 RBD-3xFLAG (52-151) (Homo sapiens, UniProt P01116, G12R).
T4 construct: Avi-KRAS G12R (1-169)
The test can be described thus: Raf1-KRAS G12R-GppNHP disruption HTRF assay (Biological Example 1). In kind it is binding. Conditions: KRAS G12R, GppNHp-loaded; Table 11. How it is done: A protein:protein interaction (PPI) Homogeneous Time Resolved Fluorescence (HTRF) assay was used to determine the effectiveness of compounds of the present disclosure in disrupting KRAS protein and effector RAF1 binding.
The assay buffer included: 50 mM Tris pH 7.5, 100 mM NaCl, 5 mM MgCl2, 0.1% BSA, 0.01% Tween, and 10% DMSO. The bead buffer included: 50 mM Tris pH 7.5, and 0.01% Tween 20. Assay volume of 20 μL was used in a 384 well plate-low volume format.
The HTRF assay employed the following protocol:
Protein mix was prepared in assay buffer, and dispensed on plates, 10 μL per well, then incubated for 1 h at room temperature, with 700 rpm shaking, Reagents mix was prepared and dispensed on plates, 10 μL per well, then incubated for 1 h at room temperature, with 700 rpm shaking.
Data was reported as percentage of activity, with DMSO as 100%. Data was plotted and analyzed using Prism 8.

T4 sequence (P01116 1-169 isoform P01116-2 G12R): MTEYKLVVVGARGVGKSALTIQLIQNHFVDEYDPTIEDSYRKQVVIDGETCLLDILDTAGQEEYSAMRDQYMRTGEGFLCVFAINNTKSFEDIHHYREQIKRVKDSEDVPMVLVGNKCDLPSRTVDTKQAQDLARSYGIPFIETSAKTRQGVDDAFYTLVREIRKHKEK
T3 sequence (P01116 1-169 isoform P01116-2 G12V): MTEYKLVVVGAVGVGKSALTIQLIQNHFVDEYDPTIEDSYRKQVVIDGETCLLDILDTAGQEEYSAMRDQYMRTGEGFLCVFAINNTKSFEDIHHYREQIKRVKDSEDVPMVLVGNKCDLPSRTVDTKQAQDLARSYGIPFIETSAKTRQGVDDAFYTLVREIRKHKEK
T2 sequence (P01116 1-169 isoform P01116-2 G12D): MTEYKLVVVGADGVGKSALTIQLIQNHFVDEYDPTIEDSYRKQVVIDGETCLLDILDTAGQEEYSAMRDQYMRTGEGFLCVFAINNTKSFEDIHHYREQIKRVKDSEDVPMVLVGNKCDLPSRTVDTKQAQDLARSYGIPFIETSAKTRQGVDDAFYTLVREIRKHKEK
T1 sequence (P01116 1-169 isoform P01116-2): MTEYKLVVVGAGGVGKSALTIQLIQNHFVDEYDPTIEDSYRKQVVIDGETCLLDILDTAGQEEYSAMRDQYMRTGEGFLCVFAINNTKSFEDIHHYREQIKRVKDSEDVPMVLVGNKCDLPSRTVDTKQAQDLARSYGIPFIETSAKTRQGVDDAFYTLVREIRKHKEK

With `CN(c1nc(OC[C@@]23CCCN2C[C@H](F)C3)nc2c(F)c(-c3ccc(F)c4sc(N)c(C#N)c34)c(C(F)(F)F)cc12)C1CCC1` [Compound 22], the IC50 was 0.1 to 1 µM in test [1]; under 0.1 µM in test [2] (GP2d); 0.1 to 1 µM in test [3]; 0.1 to 1 µM in test [4]; 0.1 to 1 µM in test [5].
In the case of `CCN(c1nc(OC[C@@]23CCCN2C[C@H](F)C3)nc2c(F)c(-c3ccc(F)c4sc(N)c(C#N)c34)c(C(F)(F)F)cc12)[C@@H]1CCN(C(C)=O)[C@@H]1C` [Compound 189], the IC50 in test [1] is 0.1 to 1 µM; in test [2] (GP2d) it was under 0.1 µM; in test [3], 0.1 to 1 µM; in test [4] it was 0.1 to 1 µM; in test [5], 0.1 to 1 µM.
In the case of `N#CC[C@@H]1CN(c2nc(OC[C@@]34CCCN3C[C@H](F)C4)nc3c(F)c(-c4ccc(F)c5sc(N)c(C#N)c45)c(C(F)(F)F)cc23)CCO1` [Compound 136], the IC50 is 0.1 to 1 µM in test [1]; under 0.1 µM in test [2] (GP2d); 0.1 to 1 µM in test [3]; 1 to 10 µM in test [4]; 0.1 to 1 µM in test [5].
`N#Cc1c(N)sc2c(F)ccc(-c3c(C(F)(F)F)cc4c(N5C[C@H](F)[C@@H](F)C5)nc(OC[C@@]56CCCN5C[C@H](F)C6)nc4c3F)c12` [Compound 158]: the IC50 in test [1] was 0.1 to 1 µM; in test [2] (GP2d), under 0.1 µM; in test [3] it was 0.1 to 1 µM; in test [4], 0.1 to 1 µM; in test [5], 0.1 to 1 µM.
Regarding `CN(c1nc(OC[C@@]23CCCN2C[C@H](F)C3)nc2c(F)c(-c3ccc(F)c4sc(N)c(C#N)c34)c(C#N)cc12)[C@H]1C[C@@H](O)C1` [Compound 32, 7-(2-amino-3-cyano-7-fluoro-benzothiophen-4-yl)-8-fluoro-2-[[(2R,8S)-2-fluoro-1,2,3,5,6,7-hexahydropyrrolizin-8-yl]methoxy]-4-[(3-hydroxycyclobutyl)-methyl-amino]quinazoline-6-carbonitrile], the IC50 in test [1] fell in the range of 0.1 to 1 µM; in test [2] (GP2d) it was 0.1 to 1 µM; in test [3], 0.1 to 1 µM; in test [4], 1 to 10 µM; in test [5], 0.1 to 1 µM.
Consider `C[C@H](CO)N(C)c1nc(OC[C@@]23CCCN2C[C@H](F)C3)nc2c(F)c(-c3ccc(F)c4sc(N)c(C#N)c34)c(C(F)(F)F)cc12` [Compound 76], for which the IC50 was 0.1 to 1 µM in test [1]; under 0.1 µM in test [2] (GP2d); under 0.1 µM in test [3]; 0.1 to 1 µM in test [4]; 0.1 to 1 µM in test [5].
Consider `C[C@H]1CN(c2nc(OC[C@@]34CCCN3C[C@H](F)C4)nc3c(F)c(-c4ccc(F)c5sc(N)c(C#N)c45)c(C(F)(F)F)cc23)CCO1` [Compound 142], for which the 50% inhibitory concentration (IC50) in test [1] was 0.1 to 1 µM; in test [2] (GP2d), under 0.1 µM; in test [3], 0.1 to 1 µM; in test [4], 1 to 10 µM; in test [5] it was 0.1 to 1 µM.
Consider `CCN(CCO)c1nc(OC[C@@H]2CCCN2C)nc2c(F)c(-c3ccc(F)c4sc(N)c(C#N)c34)c(C(F)(F)F)cc12` [Compound 179], for which the IC50 is 0.1 to 1 µM in test [1]; under 0.1 µM in test [2] (GP2d); 0.1 to 1 µM in test [3]; 0.1 to 1 µM in test [4]; 0.1 to 1 µM in test [5].
Turning to `N#Cc1c(N)sc2c(F)ccc(-c3c(C(F)(F)F)cc4c(N5CC6CCC(C5)O6)nc(OC[C@@]56CCCN5C[C@H](F)C6)nc4c3F)c12` [Compound 130], the IC50 in test [1] is 0.1 to 1 µM; in test [2] (GP2d), under 0.1 µM; in test [3] it was 0.1 to 1 µM; in test [4] it was 1 to 10 µM; in test [5] it was 0.1 to 1 µM.
As to `N#Cc1c(N)sc2c(F)ccc(-c3c(C(F)(F)F)cc4c(N5CCC6(CC5)CC(O)C6)nc(OC[C@@]56CCCN5C[C@H](F)C6)nc4c3F)c12` [Compound 45], the IC50 in test [1], in test [2] (GP2d), in test [3], in test [4] and in test [5] was 0.1 to 1 µM throughout.
As for `CC(=O)N1CCC(N(C)c2nc(OCC34CCCN3CC(F)C4)nc3c(F)c(-c4ccc(F)c5scc(C#N)c45)c(C(F)(F)F)cc23)C1` (stereo not drawn) [Compound 105], the 50% inhibitory concentration (IC50) is over 10 µM in test [1]; over 1 µM in test [2]; over 10 µM in test [3]; over 10 µM in test [4]; over 10 µM in test [5].
Turning to `C[C@H](O)C1CCN(c2nc(OC[C@@]34CCCN3C[C@H](F)C4)nc3c(F)c(-c4ccc(F)c5sc(N)c(C#N)c45)c(C(F)(F)F)cc23)CC1` [Compound 50], the IC50 in test [1] was 0.1 to 1 µM; in test [2] (GP2d), 0.1 to 1 µM; in test [3], 0.1 to 1 µM; in test [4], 1 to 10 µM; in test [5] it was 1 to 10 µM.
Regarding `N#Cc1c(N)sc2c(F)ccc(-c3c(C(F)(F)F)cc4c(N5C[C@@H](F)[C@@H](F)C5)nc(OC[C@@]56CCCN5C[C@H](F)C6)nc4c3F)c12` [Compound 157], the IC50 is 0.1 to 1 µM in test [1]; under 0.1 µM in test [2] (GP2d); 0.1 to 1 µM in test [3]; 1 to 10 µM in test [4]; 0.1 to 1 µM in test [5].
For `CC(=O)N1CC[C@H](N(C)c2nc(OC[C@@]34CCCN3C[C@H](F)C4)nc3c(F)c(-c4ccc(F)c5sc(N)c(C#N)c45)c(C(F)(F)F)cc23)[C@H]1C` [Compound 191], the IC50 in test [1] is 0.1 to 1 µM; in test [2] (GP2d), under 0.1 µM; in test [3], 0.1 to 1 µM; in test [4], 0.1 to 1 µM; in test [5], 0.1 to 1 µM.
Turning to `CCN(c1nc(OC[C@@]23CCCN2C[C@H](F)C3)nc2c(F)c(-c3ccc(F)c4sc(N)c(C#N)c34)c(C(F)(F)F)cc12)C(C)C` [Compound 154], the IC50 in test [1] is 0.1 to 1 µM; in test [2] (GP2d), under 0.1 µM; in test [3] it was 0.1 to 1 µM; in test [4] it was 0.1 to 1 µM; in test [5] it was 0.1 to 1 µM.
As to `N#Cc1c(N)sc2c(F)ccc(-c3c(C(F)(F)F)cc4c(N5CCC(F)(F)CC5)nc(OC[C@@]56CCCN5C[C@H](F)C6)nc4c3F)c12` [Compound 150], the IC50 in test [1] was 0.1 to 1 µM; in test [2] (GP2d), under 0.1 µM; in test [3] it was 0.1 to 1 µM; in test [4], 1 to 10 µM; in test [5], 0.1 to 1 µM.
Regarding `CN(c1nc(OC[C@@]23CCCN2C[C@H](F)C3)nc2c(C#N)c(-c3ccc(F)c4sc(N)c(C#N)c34)c(Cl)cc12)[C@H]1C[C@@H](O)C1` [Compound 30, 7-(2-amino-3-cyano-7-fluorobenzo[b]thiophen-4-yl)-6-chloro-2-(((2R,7aS)-2-fluorotetrahydro-1H-pyrrolizin-7a(5H)-yl)methoxy)-4-(((1s,3R)-3-hydroxycyclobutyl)(methyl)amino)quinazoline-8-carbonitrile], the IC50 in test [1], in test [2] (GP2d), in test [3], in test [4] and in test [5] was 0.1 to 1 µM in each case.
As to `CN(c1nc(OC[C@@]23CCCN2C[C@H](F)C3)nc2c(F)c(-c3ccc(F)c4sc(N)c(C#N)c34)c(C(F)(F)F)cc12)[C@@H]1CCN(C(=O)CC#N)C1` (atropisomer, axis not shown) [Compound 103], the 50% inhibitory concentration (IC50) was 0.1 to 1 µM in test [1]; under 0.1 µM in test [2] (GP2d); 0.1 to 1 µM in test [3]; 0.1 to 1 µM in test [4]; 0.1 to 1 µM in test [5].
Regarding `N#CC[C@H]1CN(c2nc(OC[C@@]34CCCN3C[C@H](F)C4)nc3c(F)c(-c4ccc(F)c5sc(N)c(C#N)c45)c(C(F)(F)F)cc23)CCO1` [Compound 137], the IC50 in test [1] is 0.1 to 1 µM; in test [2] (GP2d), under 0.1 µM; in test [3], 0.1 to 1 µM; in test [4] it was 1 to 10 µM; in test [5], 0.1 to 1 µM.
In the case of `CN(c1nc(OC[C@@H]2CC3(CC3)CN2C)nc2c(F)c(-c3ccc(F)c4sc(N)c(C#N)c34)c(C(F)(F)F)cc12)C1CC(O)C1` (stereo partly drawn) [Compound 41], the IC50 in test [1] was 0.1 to 1 µM; in test [2] (GP2d), under 0.1 µM; in test [3], 0.1 to 1 µM; in test [4] it was 0.1 to 1 µM; in test [5] it was 0.1 to 1 µM.
As to `CCCN(C)c1nc(OC[C@@]23CCCN2C[C@H](F)C3)nc2c(F)c(-c3ccc(F)c4sc(N)c(C#N)c34)c(C(F)(F)F)cc12` [Compound 120], the IC50 in test [1] is 0.1 to 1 µM; in test [2] (GP2d), under 0.1 µM; in test [3] it was 0.1 to 1 µM; in test [4] it was 0.1 to 1 µM; in test [5] it was 0.1 to 1 µM.
